Reference: patent US20100035756A1, “TRIAZOLOPHYRIDINE DERIVATIVES AS HERBICIDES” (SYNGENTA LIMITED, priority 2006, published 2010)
Several values for one entry are separate records, joined by “and”; a condition that tells them apart may be missing. Identical values can stand only once.

What was measured:
[1] = test system: Monocotyledonous and dicotyledonous test plants; assay: Herbicidal action prior to emergence of the plants (pre-emergence action), Example B1; assay type: in vivo; settings: preemergence application, 250 g/ha, evaluated after 4 weeks, 100%=total damage, 0%=no damage
Description: (§1) Monocotyledonous and dicotyledonous test plants are sown in seed trays in standard soil. Immediately after sowing, the test compounds are applied by spraying in the form of an aqueous suspension (prepared from a wettable powder (Example F3, b) according to WO 97/34485) or in the form of an emulsion (prepared from an emulsifiable concentrate (Example F1, c) according to WO 97/34485) in a concentration of 250 g/ha. The test plants are then grown in a greenhouse under optimum conditions. After a 4-week test period, the test is evaluated (100%=total damage to plant; 0%=no damage to plant; NC not evaluated).

[2] = test system: Monocotyledonous and dicotyledonous test plants; assay: Herbicidal action after emergence of the plants (post-emergence herbicidal action), Example B2; assay type: in vivo; settings: postemergent application, 125 g/ha, 2- to 3-leaf stage, evaluated after 2-3 weeks, 100%=total damage
Description: as §1, with “When the test plants are at the 2- to 3-leaf stage,” for “Immediately after sowing,”, “125” for “250”, “grown on” for “grown”, “2- to 3-week” for “4-week”, “plant).” for “plant; NC not evaluated).”

| SMILES | herbicidal damage, ABUTH [1] | herbicidal damage, AMARE [1] | herbicidal damage, BRAPL [1] | herbicidal damage, DIGSA [1] | herbicidal damage, ECHCG [1] | herbicidal damage, SETFA [1] | herbicidal damage, VERPE [1] | herbicidal damage, ABUTH [2] | herbicidal damage, AMARE [2] | herbicidal damage, CHEAL [2] | herbicidal damage, DIGSA [2] | herbicidal damage, SETFA [2] | herbicidal damage, SINAR [2] | herbicidal damage, VERPE [2] | herbicidal damage, XANST [2] | herbicidal damage, STEME [1] |
| --- | --- | --- | --- | --- | --- | --- | --- | --- | --- | --- | --- | --- | --- | --- | --- | --- |
| O=C(C1=C(O)C2CCC(C2)C1=O)c1ccc(C(F)(F)F)n2c(Cl)nnc12 (stereo not drawn) [Compound 1.2] | 100% | 100% | 100% | 100% | 100% | 90% | 70% | 90% | 80% | 80% | 90% | 90% | 70% | 70% | 80% | – |
| CC(C)c1nnc2c(C(=O)C3=C(O)C4CCC(C4)C3=O)ccc(C(F)(F)F)n12 (stereo not drawn) [Compound 1.7] | 100% | 100% | 80% | 100% | 80% | 80% | 100% | 90% | 90% | 80% | 80% | 70% | 80% | 90% | 80% | 100% |
| COCc1nnc2c(C(=O)C3=C(O)C4CCC(C4)C3=O)ccc(C(F)(F)F)n12 (stereo not drawn) [Compound 1.16] | 100% | 100% | 70% | 80% | 100% | 80% | 50% | 80% | 90% | 80% | 70% | 70% | 80% | 80% | 80% | 100% |
| Cc1nnc2c(C(=O)C3=C(O)C4CCC(C4)C3=O)ccc(C(F)F)n12 (stereo not drawn) [Compound 1.54] | 20% | 10% | 40% | 0% | 0% | 0% | 20% | 70% | 80% | 70% | 60% | 50% | 60% | 60% | 70% | 0% |
| CCOc1nnc2c(C(=O)C3=C(O)C4CCC(C4)C3=O)ccc(C(F)(F)F)n12 (stereo not drawn) [Compound 1.211] | 30% | 100% | 100% | 70% | 70% | 30% | 90% | 70% | 100% | 80% | 70% | 80% | 80% | 80% | 80% | 80% |
| CCSc1nnc2c(C(=O)C3=C(O)C4CCC(C4)C3=O)ccc(C(F)(F)F)n12 (stereo not drawn) [Compound 1.212] | 70% | 100% | 60% | 70% | 50% | 80% | 0% | 80% | 80% | 80% | 80% | 80% | 80% | 80% | 80% | 70% |
| O=C1CCCC(O)=C1C(=O)c1ccc(C(F)(F)F)n2c(Br)nnc12 [Compound 3.3] | 100% | 100% | 0% | 0% | 0% | 0% | 30% | 70% | 70% | 80% | 70% | 30% | 70% | 80% | 80% | 70% |
| CCc1nnc2c(C(=O)C3=C(O)CCCC3=O)ccc(C(F)(F)F)n12 [Compound 3.5] | 100% | 70% | 80% | 90% | 70% | 90% | 30% | 90% | 100% | 90% | 80% | 70% | 80% | 90% | 80% | 60% |
| CC(C)c1nnc2c(C(=O)C3=C(O)CCCC3=O)ccc(C(F)(F)F)n12 [Compound 3.6] | 90% | 70% | 60% | 90% | 90% | 50% | 20% | 80% | 70% | 90% | 70% | 70% | 90% | 100% | 90% | 20% |
| O=C1CCCC(O)=C1C(=O)c1ccc(C(F)(F)F)n2c(C3CC3)nnc12 [Compound 3.7] | 30% | 30% | 30% | 30% | 10% | 10% | 10% | 80% | 90% | 70% | 80% | 80% | 90% | 80% | 80% | 20% |
| CC(C)c1nnc2c(C(=O)C3=C(O)C(C)(C)C(=O)C(C)(C)C3=O)ccc(C(F)(F)F)n12 [Compound 5.4] | 100% | 100% | 100% | 60% | 40% | 30% | 100% | 80% | 90% and 70% | 80% | – | 50% | 70% and 80% | 80% and 90% | 70% and 90% | 100% |
| COCc1nnc2c(C(=O)C3=C(O)C(C)(C)C(=O)C(C)(C)C3=O)ccc(C(F)(F)F)n12 [Compound 5.5] | – | 60% | 20% | 10% | 60% | 20% | 90% | 80% | 90% | 80% | 10% | 50% | 70% | 80% | 70% | 70% |
